Test results taken from PMC12711630 (Cell Reports. Physical Science, 2025).
Values joined by “and” are separate entries in the source; they are usually repeats but may differ in a detail not shown here. Identical values can stand only once. Like-named read-outs stand apart in the source and are kept apart here. Marks after values point to notes of the source that are not given here.

Legend:
[1] = molecular target: T1, (α4)2(β2)3 (HS isoform) α4β2 nAChR WT (Homo sapiens, UniProt P17787+P43681); test: Two-electrode voltage clamp, Xenopus oocytes expressing HS α4β2 nAChR, wild type; assay type: cell-based; details: for EC50: Table 3, HS (α4)2(β2)3, varenicline variants series
T1 construct: expressed in transfected cells; host or cells: Xenopus laevis oocytes, nuclear injection of cDNA in plasmid pCI (10 α4 : 1 β2 for LS, 1 α4 : 10 β2 for HS)

[2] = molecular target: T2, (α4)3(β2)2 (LS isoform) α4β2 nAChR WT (Homo sapiens, UniProt P17787+P43681); test: Two-electrode voltage clamp, Xenopus oocytes expressing LS α4β2 nAChR, wild type; assay type: cell-based
T2 construct: expressed in transfected cells; host or cells: Xenopus laevis oocytes, nuclear injection of cDNA in plasmid pCI (10 α4 : 1 β2 for LS, 1 α4 : 10 β2 for HS)

[3] = molecular target: T3, human α4β2 nAChR (Homo sapiens, UniProt P17787+P43681); test: [3H]epibatidine radioligand binding (saturation and competition), membranes of transfected HEK 293 cells
T3 construct: expressed in transfected cells; host or cells: HEK 293 cells, transient transfection with JetPEI, membranes

[4] = molecular target: T4, human α3β4 nAChR (Homo sapiens, UniProt P30926+P32297); test: as above
T4 construct: expressed in transfected cells; host or cells: HEK 293 cells, transient transfection with JetPEI, membranes

[5] = molecular target: T5, human α7 nAChR (Homo sapiens, UniProt P36544); test: [125I]α-Bgtx radioligand binding (saturation and competition), membranes of transfected SH-SY5Y cells; details: competition with [125I]α-Bgtx 2-3 nM, Cheng-Prusoff
T5 construct: expressed in transfected cells; host or cells: SH-SY5Y cells, transient transfection with JetPEI, membranes

[6] = molecular target: T6, (α4)2(β2)3 (HS isoform) α4β2 nAChR (Homo sapiens, UniProt P17787+P43681); test: Inhibition of ACh EC80 current responses, Xenopus oocytes, HS isoform; assay type: cell-based
T6 construct: expressed in transfected cells; host or cells: Xenopus laevis oocytes, nuclear injection of cDNA in plasmid pCI (10 α4 : 1 β2 for LS, 1 α4 : 10 β2 for HS)

[7] = molecular target: T7, (α4)3(β2)2 (LS isoform) α4β2 nAChR (Homo sapiens, UniProt P17787+P43681); test: Inhibition of ACh EC80 current responses, Xenopus oocytes, LS isoform; assay type: cell-based
T7 construct: expressed in transfected cells; host or cells: Xenopus laevis oocytes, nuclear injection of cDNA in plasmid pCI (10 α4 : 1 β2 for LS, 1 α4 : 10 β2 for HS)

[8] = molecular target: T8, 5-HT3A receptor (Homo sapiens, UniProt P46098); test: Inhibition of [3H]GR65630 binding, transfected HEK293 cell membranes; details: for IC50: n=3
T8 sequence (P46098 24-478): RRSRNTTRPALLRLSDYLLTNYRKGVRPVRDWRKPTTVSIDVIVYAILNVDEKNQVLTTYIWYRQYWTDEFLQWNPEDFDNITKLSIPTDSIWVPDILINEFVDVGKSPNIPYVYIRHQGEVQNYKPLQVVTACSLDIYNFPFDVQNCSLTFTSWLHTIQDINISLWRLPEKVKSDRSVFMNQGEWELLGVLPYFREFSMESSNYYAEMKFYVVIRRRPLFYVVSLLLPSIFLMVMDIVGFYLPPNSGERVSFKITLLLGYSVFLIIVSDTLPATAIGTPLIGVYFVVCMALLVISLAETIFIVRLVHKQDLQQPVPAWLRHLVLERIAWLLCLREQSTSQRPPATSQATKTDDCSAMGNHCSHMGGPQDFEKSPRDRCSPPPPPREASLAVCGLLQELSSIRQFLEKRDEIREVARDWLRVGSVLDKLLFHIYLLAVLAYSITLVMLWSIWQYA

[9] = molecular target: T8, 5-HT3A receptor; test: FlexStation fluorescent membrane-potential dye assay, transfected HEK 293 cells; assay type: cell-based; details: concentrations up to 30 µM
[10] = physchem
[11] = Spectrophotometric titration pKa determination; details: at pH 7.5
[12] = molecular target: T9, (α4)2(β2)3 (HS isoform) α4β2 nAChR β2S133V (Homo sapiens, UniProt P17787+P43681, S133V); test: Two-electrode voltage clamp, Xenopus oocytes, HS α4β2 nAChR β2S133V; assay type: cell-based
T9 construct: expressed in transfected cells; host or cells: Xenopus laevis oocytes, nuclear injection of cDNA in plasmid pCI

[13] = molecular target: T10, (α4)2(β2)3 (HS isoform) α4β2 nAChR α4T183V (Homo sapiens, UniProt P17787+P43681, T183V); test: Two-electrode voltage clamp, Xenopus oocytes, HS α4β2 nAChR α4T183V; assay type: cell-based
T10 construct: expressed in transfected cells; host or cells: Xenopus laevis oocytes, nuclear injection of cDNA in plasmid pCI

[14] = molecular target: T11, (α4)2(β2)3 (HS isoform) α4β2 nAChR α4T139V (Homo sapiens, UniProt P17787+P43681, T139V); test: Two-electrode voltage clamp, Xenopus oocytes, HS α4β2 nAChR α4T139V; assay type: cell-based
T11 construct: expressed in transfected cells; host or cells: Xenopus laevis oocytes, nuclear injection of cDNA in plasmid pCI

[15] = molecular target: T12, (α4)2(β2)3 (HS isoform) α4β2 nAChR β2S133Vα4T183V (Homo sapiens, UniProt P17787+P43681, S133V/T183V); test: Two-electrode voltage clamp, Xenopus oocytes, HS α4β2 nAChR β2S133Vα4T183V; assay type: cell-based
T12 construct: expressed in transfected cells; host or cells: Xenopus laevis oocytes, nuclear injection of cDNA in plasmid pCI

[16] = molecular target: T13, (α4)2(β2)3 (HS isoform) α4β2 nAChR β2S133Vα4T139V (Homo sapiens, UniProt P17787+P43681, S133V/T139V); test: Two-electrode voltage clamp, Xenopus oocytes, HS α4β2 nAChR β2S133Vα4T139V; assay type: cell-based
T13 construct: expressed in transfected cells; host or cells: Xenopus laevis oocytes, nuclear injection of cDNA in plasmid pCI

[17] = molecular target: T14, (α4)3(β2)2 (LS isoform) α4β2 nAChR β2S133V (Homo sapiens, UniProt P17787+P43681, S133V); test: Two-electrode voltage clamp, Xenopus oocytes, LS α4β2 nAChR β2S133V; assay type: cell-based
T14 construct: expressed in transfected cells; host or cells: Xenopus laevis oocytes, nuclear injection of cDNA in plasmid pCI

[18] = molecular target: T15, (α4)3(β2)2 (LS isoform) α4β2 nAChR α4T183V (Homo sapiens, UniProt P17787+P43681, T183V); test: Two-electrode voltage clamp, Xenopus oocytes, LS α4β2 nAChR α4T183V; assay type: cell-based
T15 construct: expressed in transfected cells; host or cells: Xenopus laevis oocytes, nuclear injection of cDNA in plasmid pCI

[19] = molecular target: T16, (α4)3(β2)2 (LS isoform) α4β2 nAChR α4T139V (Homo sapiens, UniProt P17787+P43681, T139V); test: Two-electrode voltage clamp, Xenopus oocytes, LS α4β2 nAChR α4T139V; assay type: cell-based
T16 construct: expressed in transfected cells; host or cells: Xenopus laevis oocytes, nuclear injection of cDNA in plasmid pCI

[20] = molecular target: T17, (α4)3(β2)2 (LS isoform) α4β2 nAChR β2S133Vα4T183V (Homo sapiens, UniProt P17787+P43681, S133V/T183V); test: Two-electrode voltage clamp, Xenopus oocytes, LS α4β2 nAChR β2S133Vα4T183V; assay type: cell-based
T17 construct: expressed in transfected cells; host or cells: Xenopus laevis oocytes, nuclear injection of cDNA in plasmid pCI

[21] = molecular target: T18, (α4)3(β2)2 (LS isoform) α4β2 nAChR β2S133Vα4T139V (Homo sapiens, UniProt P17787+P43681, S133V/T139V); test: Two-electrode voltage clamp, Xenopus oocytes, LS α4β2 nAChR β2S133Vα4T139V; assay type: cell-based
T18 construct: expressed in transfected cells; host or cells: Xenopus laevis oocytes, nuclear injection of cDNA in plasmid pCI

[22] = system: human 5-HT3 serotonin receptor; details: cited from earlier work

c1ccc2cc3c(cc2c1)C1CNCC3C1 [C2 varenicline 4]
RE [1]: 0.022 ± 0.0033 ^a | fold increase in EC50 vs varenicline 1 [1]: 10 fold | fold reduction of efficacy vs varenicline 1 [1]: 6 fold | EC50 [1]: 2.64 ± 0.8 µM | RE [2]: 0.102 ± 0.012 ^a | fold increase in EC50 vs varenicline 1 [2]: 10 fold | fold reduction of efficacy vs varenicline 1 [2]: 4 fold | EC50 ([2]; Table 3, LS (α4)3(β2)2, varenicline variants series, read-out: EC50): 11.5 ± 1.74 µM | Ki [3]: 0.0143 ± 0.0016 µM | fold decrease in affinity compared to varenicline 1 [3]: approximately 30 fold | Ki ratio α3β4/α4β2 [4]: 18.7 | Ki ([4]; competition with [3H]epibatidine 0.25 nM, Cheng-Prusoff): 0.267 ± 0.073 µM | Ki [5]: 1.32 µM | IC50 [6]: 11 ± 1.2 µM | IC50 ([7]; co-applied with ACh EC80 300 µM): 33 ± 14 µM | fold increase of IC50 against [3H]GR65630 compared to varenicline 1 [8]: 44 fold | IC50 ([8]; mean + SEM, read-out: pIC50, inhibition of [3H]GR65630 binding (converted)): 13.6 µM | functional response at 5-HT3A receptors [9]: No signiﬁcant responses | pKa [10]: 9.63 ± 0.08 | protonated fraction of ammonium center [11]: ≥ 90%

O=c1cccc2n1C[C@@H]1CNC[C@H]2C1 [Cytisine 3, cytisine]
RE (relative efficacy, I/ImaxACh) [1]: 0.025 and 0.025 ± 0.004 | RE (relative efficacy, I/ImaxACh) [12]: 0.016 ± 0.002 | RE (relative efficacy, I/ImaxACh) [13]: 0.021 ± 0.003 | RE (relative efficacy, I/ImaxACh) [14]: 0.023 ± 0.001 | RE (relative efficacy, I/ImaxACh) [15]: 0.018 ± 0.003 | RE (relative efficacy, I/ImaxACh) [16]: 0.022 ± 0.009 | EC50 [2]: 2.9 ± 0.8 µM | RE (relative efficacy, I/ImaxACh) [2]: 0.23 and 0.23 ± 0.08 | EC50 [17]: 5.1 ± 1 µM | RE (relative efficacy, I/ImaxACh) [17]: 0.21 ± 0.01 | EC50 [18]: 4.6 ± 1 µM | RE (relative efficacy, I/ImaxACh) [18]: 0.22 ± 0.02 | EC50 [19]: 2.5 ± 0.7 µM | RE (relative efficacy, I/ImaxACh) [19]: 0.19 ± 0.02 | EC50 [20]: 6.9 ± 1.5 µM | RE (relative efficacy, I/ImaxACh) [20]: 0.19 ± 0.01 | EC50 [21]: 5.8 ± 1.4 µM | RE (relative efficacy, I/ImaxACh) [21]: 0.18 ± 0.01 | fold less potent than varenicline 1 [22]: 2,000 fold | pKa ([10]; pKa value): 8.07

c1ccc2nc3c(nc2c1)C1CNCC3C1 [Isovarenicline 5]
RE [1]: 0.0071 ± 0.00086 ^a | fold reduction of efficacy vs varenicline 1 [1]: 20 fold | EC50 [1]: 13.3 ± 2.5 µM | RE [2]: 0.054 ± 0.013 ^a | fold reduction of efficacy vs varenicline 1 [2]: 7 fold | EC50 ([2]; read-out: EC50): 26 ± 8.5 µM | Ki ([3]; read-out: Ki α4β2): 5.46 µM | Ki [4]: 67.7 µM | Ki ratio α3β4/α4β2 [4]: 12 | Ki [5]: 127 µM | IC50 [6]: 70 ± 12 µM | IC50 [7]: 142 ± 21 µM | fold increase of IC50 against [3H]GR65630 compared to varenicline 1 [8]: 165 fold | IC50 ([8]; [3H]GR65630 0.3 nM, read-out: IC50, inhibition of [3H]GR65630 binding): 49.6 µM | functional response at 5-HT3A receptors [9]: No signiﬁcant responses | pKa [10]: 8.44 ± 0.09 | protonated fraction of ammonium center [11]: ≥ 90%
